From patent publication US20110165611A1, “DUAL MODALITY DETECTION OF APOPTOSIS” (priority 2008, published 2011) come the findings set out here.

The subject of one data set is liver. In words: Radio-HPLC analysis of liver extracts from mice injected 99mTc-chelate 4. The settings on record: mouse, in vivo. Here is the method: Two hours after intravenous injection of 4 (1 mCi, 80 μg, 0.2 mL) into a mouse treated with […] and a mouse treated with PBS 2 h prior to the injection of the radiotracer, mice were killed and livers were removed and ground at 4° C. using a Dounce homogenizer (Polytron, […], Switzerland) in 5 mL of acetonitrile/methanol (3:1, v/v). After sequential high-speed centrifugation (100,000 g for 20 min) to remove cellular debris and insoluble proteins, the supernatants were concentrated and injected into the radio-HPLC system (condition: solvent A, 0.01 M NH4OAc in water; solvent B, acetonitrile; gradient: 0-80% B in A over 40 min, flow rate 1.0 mL/min, C18 4.6×250 mm, 5-μm column).

For a further data set, the system named is DLD1 cells. In words: Cellular uptake and efflux of 99mTc-chelate 4, radiotracer analysis. The class given is cell-based, human. The procedure:
The medium was replaced with 2 mL of medium containing radiotracers 99 mTc-chelate 4 [Ac-DEVD-R110-D-SAAC-99mTc(CO)3] (˜40 μCi/mL) or its fragment R110-D-SAAC-99 mTc(CO)3 (˜40 μCi/mL). The cells were subsequently incubated for 60 and 120 min before the monolayers were scraped, transferred into 5-mL tubes. The tubes were briefly vortexed and 100 μL DLD1 cell suspension were transferred into a microcentrifuge tube containing 500 μL of a 75:25 mixture of silicon oil (density 1.05, Aldrich) and mineral oil (density 0.872, Acros). The mixture was centrifuged at 14,000 rpm for 5 min. After freezing the tubes with liquid nitrogen, the bottom tips containing the cell pellet were cut off. The cell pellets and the supernatants were counted with a γ-counter (Perkin-Elmer). The protein content in 100 μl cell suspension was quantified in a separate experiment using the Bio-Rad protein assay kit according to the manufacturer's protocol. For efflux study, cells were incubated with each radiotracer for 2 hrs, then the medium was removed and the cells washed with medium twice. The cells were incubated with 2 mL of fresh medium for additional 60 min, 120 min, and 180 min. The radioactivity in the cell pellets and media were counted as described before. Activity ratios of the cell pellet to medium ([cpm/g protein in pellet]/[cpm/g medium]) were calculated and plotted against time. The experiments were performed in pentaplicate.

As for R110-D-SAAC-^99mTc(CO)3, the “Retention of degradation product in liver” value in the data set with liver was “retained in the apoptotic liver in its intact form”. Further, the “Permeability to plasma membrane compared with parent substrate” value in the data set with DLD1 cells was “less permeable to plasma membrane”. The “Efflux / retention in DLD1 cells after wash” value in the data set on DLD1 cells (2 h loading, fresh medium 60-180 min) is on record as “trapped in the cells”.
